Data set [1] can be described thus: Dissociation constant, pKa of the compound by capillary electrophoresis method. In kind it is physicochemical.
A short description of data set [2]: Drug degradation of the compound at 40 degC/89 % relative humidity. In kind it is physicochemical. The conditions noted are these: read-out: Drug degradation.

The pKa is the negative logarithm of the acid dissociation constant. A lower pKa goes with a stronger acid or weaker base. Turning to `C[C@@]1(c2ccccc2F)CCOC(N)=N1`, the pKa in data set [1] was found to be 9.8.

As for `C[C@@]1(c2cc(NC(=O)c3ccc(C#N)cn3)ccc2F)C=C(CF)OC(N)=N1`, the degraded in data set [2] came to 0.06%.
